{
  "source": "patent US20160102052A1",
  "about": "“Use of Cysteamine in Treating Infections caused by Yeasts/Moulds” (priority 2014, published 2016)",
  "system": "Candida albicans 73/025",
  "experiment": "Minimum inhibitory concentration test of cysteamine (Lynovex, NM001), CLSI M27-A3",
  "type": "cell-based",
  "settings": "vulvovaginal isolate 73/025; RPMI-1640, 35° C., read at 24 h and 48 h",
  "experimental": "The aim of the experiment was to determine the MIC of Lynovex (NM001) against vulvovaginal isolate Candida albicans 73/025. Plates were prepared which contain a serial doubling dilution of Lynovex (NM001) at 2× final concentration. The cultures were then prepared in 2×RPMI-1640, according to the CLSI M27-A3 protocol, and mixed in equal volumes in the plate resulting in 1×RPMI-1640, the concentration of compound mentioned below, and the CLSI standard inoculum for C. albicans. These were incubated at 35° C. and read at 24 h and 48 h on the BioTek plate reader.\n• 1. Culture of Candida albicans grown overnight at 30° C. • 2. Culture removed from incubator. Add 2 ml sterile dH2O to the overnight culture and wash the cells from the surface of the agar. Cells placed in fresh bijou tube. • 3. Serial doubling dilution carried out and measured against same volume of MacFarland Standard • a. 100 μl culture added to well A1 of microtitre plate. • b. 100 μl sterile dH2O added to wells A2-A11. • c. 100 μl culture added to well A2 of microtitre plate and mixed well resulting in a 1 in 2 dilution. • d. 100 μl taken from A2 and added to A3 on plate and mixed well resulting in a 1 in 4 dilution. • e. This is continued to A11 where 100 μl is removed and discarded. • f. […] Plate read at OD530 on BioTek • h. […]\n• 1. […] The plate is read in the BioTek at OD530. • 3. […]",
  "data": [
    {"smiles": "NCCS", "note": "[NM001, cysteamine]", "values": [
      {"measurement": "growth of Candida albicans", "result": "inhibited the growth"}
    ]}
  ]
}
